Experimental data as given in patent publication US20230146455A1, “TREATMENT OF INFLAMMATORY DISEASES WITH PEPTIDES AND PHARMACEUTICAL COMPOSITIONS” (Yuyu Pharma, Inc., priority 2020, published 2023).
≈ marks a conversion by molar mass, not a printed value. Entries after “also recorded” stand apart in the source; their conditions may differ. Where two headings read alike, the source gives them in different places. Where a SMILES comes first, the peptide text is derived from it. [ ]: non-standard residue; d: D form. The star is where a group is joined. Pyrrolidin1yl(2S-Ac) = CC(=O)[C@@H]1CCCN1*; Hyp = O=C(O)[C@@H]1C[C@@H](O)CN1; NH(CH2)2O(CH2)2NH2 = NCCOCCN*; Pyrrolidide = C1CCN(*)C1; X1 = CCN(C(C)C)*; NMeEt = CCN(C)*

Legend:
[1] = system: IL-6 cytokine release in poly I:C stimulated primary human corneal epithelial cells; assay: Soluble IL-6 cytokine release in poly I:C stimulated primary human corneal epithelial cells by ELISA (Example 2); type: cell-based; conditions: 25 μg/mL poly I:C, 24 hours; for Poly I:C induced IL-6 cytokine release (in words): 30, 10, 1, 0.1, 0.01, 0.001 μM
Procedure: Assay protocol as shown below was used to determine the significant effect of test compounds. The data was statistically analyzed by one-way ANOVA with a Bonferroni post test comparing all the columns. The significance was represented by the p value.
Selected YDE peptides (YDE-093, -096, -100, -101, -102, -103, -104, -105, -106 and -107) were evaluated by assessing the soluble IL-6 cytokine release in poly I:C stimulated primary human corneal epithelial cells by ELISA (Biolegend, 430504).
Specifically, primary corneal epithelial cells (ATCC, ATCC PCS-700-010) were seeded on a 6-well culture plate containing the Corneal Epithelial Cell Basal Medium (ATCC, ATCC PCS-700-030) in the Corneal Epithelial Cell Growth Kit (ATCC, ATCC PCS-700-040) in an amount of 1.2×10^5 cells per well, which was then cultured for 24 hours under the conditions of 37° C. and 5% CO2. Then, cells were washed with 1×PBS and replaced with serum free medium which was then cultured for 2 hours under the conditions of 37° C. and 5% CO2.
After 2 hours, cells were treated with compounds at 6 differential concentrations (Hinokitiol/YDE peptides at 30, 10, 1, 0.1, 0.01, and 0.001 μM) with the DMSO final 0.5% and then cultured for 1 hour under the conditions of 37° C. and 5% CO2.
After 1 hour, cells were further treated with 25 μg/mL of poly I:C and cultured for 24 hours under the conditions of 37° C. and 5% CO2.
Following incubation, the supernatant was collected for IL-6 levels was assessed by Sandwich ELISA (Enzyme-linked immunosorbent assay) following manufacturer's instructions. The data was statistically analyzed by one-way ANOVA with a Bonferroni post-test comparing all the columns. The significance was represented by the p value.

[2] = Solubility (in water; in saline); type: physicochemical; conditions: for solubility: water
Caco-2 cells monolayer = assay: Apparent permeability, 21 day cultured Caco-2 cell monolayer, bi-directional (Example 7); type: in vitro ADME
Procedure: (§1) 10 mM stock solution of test compound was prepared in DMSO. 10 mM stock was diluted with 100% DMSO to prepare 0.2 mM, 0.2 mM stock was diluted with HBSS buffer to a final concentration of 2 μM.
(§2) Add 250 μL of DMEM to the basal compartment of 96 well multi-screen Caco-2 plates and seed 12000 cells/well (0.16×10^6 cells/ml) in all the apical wells required and 2 wells with only media as blank without cells. Place the Caco-2 plate in CO2 incubator at 37° C. for proliferation of cells.
(§3) The utilized media was replenished every alternate day by fresh medium. On 21st day, utilized medium was removed and washed twice with HBSS Buffer and incubated with HBSS buffer 30 min in incubator and initiated the assay.
(§4) 75 μL of test compound was added to apical wells and 250 μL of HBSS buffer with 1% DMSO was added to basal wells. Samples were collected at 120 min and processed as stated below.
(§5) 250 μL of test compound was added to basal wells and 75 μL of HBSS buffer with 1% DMSO was added to apical wells. Samples were collected at 120 min and processed as stated below.
(§6) Single point calibration curve in HBSS buffer was used. 100 μL of supernatant was diluted with 200 μL of water and submitted for LC-MS/MS analysis.
(§7) Efflux ratio=Papp of basal to apical samples/Papp of apical to basal samples
(§8) Recovery: {(dQ of Apical+dQ of Basal)/Standard dQ}*100

[3] = as above; type: in vitro ADME; conditions: human; for recovery at 120 min, 2 μM: Caco-2, 2 μM
Procedure: as §1, §2, §3, §4, §5, §6, §7, §8

[4] = system: IL-6 cytokine release in poly I:C stimulated primary human corneal epithelial cells; assay: Soluble IL-6 cytokine release in poly I:C stimulated primary human corneal epithelial cells by ELISA (Example 6); type: cell-based
Text: To determine the effect of compound by assessing the soluble IL-6 cytokine release in poly I:C stimulated primary human corneal epithelial cells by ELISA. • Test System: Primary Human Corneal Epithelial cells • Assay Format: 96-well plate format • Method of Detection: Enzyme-linked immunosorbent assay • Assay Controls: Hinokitiol Assay protocol as shown below was used to determine the significant effect of test compounds. The data was statistically analyzed by one-way ANOVA with a Bonferroni post test comparing all the columns. The significance was represented by the p value.

| SMILES | Solubility in Water [2] [mg/mL] | solubility [2] [µg/mL] | Poly I:C induced IL-6 cytokine release (in words) [1] | tested concentrations with significant attenuation of IL-6 cytokine release [1] | further results |
| --- | --- | --- | --- | --- | --- |
| CCN(C)C(=O)[C@@H]1CCCN1C(=O)CNC(=O)[C@H](C)NC(=O)[C@H](CC(C)C)NC(=O)CNC(=O)[C@H](CC(C)C)NC(=O)[C@H](CCC(N)=O)NC(=O)CNC(=O)[C@@H]1C[C@@H](O)CN1 [YDE-103] (H-[Hyp]GQLGLAGP-NMeEt) | – | – | attenuation of IL-6 release | – | tested concentrations with significant attenuation of IL-6 cytokine release ([1]; listed as YDE103): 30 μM, 10 μM, 1 μM and 0.1 μM; Poly I:C induced IL-6 cytokine release (in words) ([1]; listed as YDE103): attenuate Poly I:C induced IL-6 cytokine release in a dose dependent manner |
| CC(C)NCC(O)COc1cccc2ccccc12 (centres unmarked) [Propranolol, reference compound] | – | – | – | – | Classification (Caco-2 Permeability) (Caco-2 cells monolayer): HIGH; recovery at 120 min, 2 μM ([3]; 120 minutes, read-out: A to B % Recovery): 80.1%; recovery at 120 min, 2 μM ([3]; 120 minutes, read-out: B to A % Recovery): 90.3%; Papp A→B at 120 min, 2 μM ([3]; Caco-2, 2 μM, 120 minutes, average values, read-out: Papp Apical to Basal): 23.8 ×10⁻⁶ cm/s; Papp B→A at 120 min, 2 μM ([3]; Caco-2, 2 μM, 120 minutes, average values, read-out: Papp Basal to Apical): 37.1 ×10⁻⁶ cm/s; efflux ratio at 120 min, 2 μM ([3]; Caco-2, Papp B-A / Papp A-B): 1.56 |
| CC(C)C[C@H](NC(=O)CNC(=O)[C@H](CC(C)C)NC(=O)[C@H](CCC(N)=O)NC(=O)CNC(=O)[C@@H]1C[C@@H](O)CN1)C(=O)N[C@@H](C)C(=O)NCC(=O)N1CCC[C@H]1C(=O)N1CCCC1 [YDE-106] (H-[Hyp]GQLGLAGP-Pyrrolidide) | 10.0 (≈ 11.4 mM) | – | attenuation of IL-6 release | 30 μM, 10 μM, and 1 μM | Poly I:C induced IL-6 cytokine release (in words) ([1]; listed as YDE106): attenuate Poly I:C induced IL-6 cytokine release in a dose dependent manner |
| CC(C)C[C@H](NC(=O)CNC(=O)[C@H](CC(=O)O)NC(=O)[C@H](CCC(N)=O)NC(=O)CNC(=O)[C@@H]1C[C@@H](O)CN1)C(=O)N[C@@H](C)C(=O)O [YDE-094, O*GQDGLA] (H-[Hyp]GQDGLA-OH) | – | 10000 (≈ 14.9 mM) | – | – | – |
| CC(C)C[C@H](NC(=O)CNC(=O)[C@H](CC(C)C)NC(=O)[C@H](CCC(N)=O)NC(=O)CNC(=O)[C@@H]1C[C@@H](O)CN1)C(=O)N[C@@H](C)C(=O)NCC(=O)N1CCC[C@H]1C(=O)N[C@@H](CCCCN)C(=O)NCCOCCN [YDE-096] (H-[Hyp]GQLGLAGPK-{NH(CH2)2O(CH2)2NH2}) | – | 10000 (≈ 9.62 mM) | attenuation of IL-6 release; also recorded: attenuate Poly I:C induced of IL-6 cytokine release in a dose dependent manner | – | Poly I:C induced IL-6 cytokine release (in words) [4]: attenuate Poly I:C induced of IL-6 cytokine release in a dose dependent manner; tested concentrations with significant attenuation of IL-6 cytokine release [4]: 30 μM, 10 μM, 1 μM and 0.1 μM |
| CC(=O)[C@@H]1CCCN1C(=O)CNC(=O)[C@H](C)NC(=O)[C@H](CC(C)C)NC(=O)CNC(=O)[C@H](CC(C)C)NC(=O)[C@H](CCC(N)=O)NC(=O)CNC(=O)[C@@H]1C[C@@H](O)CN1 [YDE-100] (H-[Hyp]GQLGLAG-{Pyrrolidin1yl(2S-Ac)}) | 10.0 (≈ 12.2 mM) | – | attenuation of IL-6 release | 30 μM, and 10 μM | Poly I:C induced IL-6 cytokine release (in words) ([1]; listed as YDE100): attenuate Poly I:C induced IL-6 cytokine release in a dose dependent manner |
| CC(C)C[C@H](NC(=O)CNC(=O)[C@H](CC(C)C)NC(=O)[C@H](CCC(N)=O)NC(=O)CNC(=O)[C@@H]1C[C@@H](O)CN1)C(=O)N[C@@H](C)C(=O)NCC(=O)N1CCC[C@H]1C(=O)N[C@@H](CCCCN)C(=O)NCCOCCN [YDE-093] (H-[Hyp]GQLGLAGPK-{NH(CH2)2O(CH2)2NH2}) | 10.0 (≈ 9.62 mM) | – | attenuation of IL-6 release; also recorded: attenuate Poly I:C induced of IL-6 cytokine release in a dose dependent manner | – | Poly I:C induced IL-6 cytokine release (in words) [4]: attenuate Poly I:C induced of IL-6 cytokine release in a dose dependent manner; tested concentrations with significant attenuation of IL-6 cytokine release [4]: 30 μM, 10 μM, 1 μM and 0.1 μM |

Continued, in another order:

| Solubility in Water [2] [mg/mL] | solubility [2] [µg/mL] | SMILES | Poly I:C induced IL-6 cytokine release (in words) [1] | tested concentrations with significant attenuation of IL-6 cytokine release [1] | further results |
| --- | --- | --- | --- | --- | --- |
| 10.0 (≈ 11.7 mM) | – | CCNC(=O)[C@@H]1CCCN1C(=O)CNC(=O)[C@H](C)NC(=O)[C@H](CC(C)C)NC(=O)CNC(=O)[C@H](CC(C)C)NC(=O)[C@H](CCC(N)=O)NC(=O)CNC(=O)[C@@H]1C[C@@H](O)CN1 [YDE-102] (H-[Hyp]GQLGLAGP-NHEt) | attenuation of IL-6 release | 30 μM, 10 μM, and 1 μM | Poly I:C induced IL-6 cytokine release (in words) ([1]; listed as YDE102): attenuate Poly I:C induced IL-6 cytokine release in a dose dependent manner |
| 10.0 (≈ 11.7 mM) | – | CC(C)C[C@H](NC(=O)CNC(=O)[C@H](CC(C)C)NC(=O)[C@H](CCC(N)=O)NC(=O)CNC(=O)[C@@H]1C[C@@H](O)CN1)C(=O)N[C@@H](C)C(=O)NCC(=O)N1CCC[C@H]1C(=O)N(C)C [YDE-101] (H-[Hyp]GQLGLAGP-NMe2) | attenuation of IL-6 release | 30 μM, 10 μM, and 1 μM | Poly I:C induced IL-6 cytokine release (in words) ([1]; listed as YDE101): attenuate Poly I:C induced IL-6 cytokine release in a dose dependent manner |
| – | 10000 (≈ 11.5 mM) | CCN(C)C(=O)[C@@H]1CCCN1C(=O)CNC(=O)[C@H](C)NC(=O)[C@H](CC(C)C)NC(=O)CNC(=O)[C@H](CC(C)C)NC(=O)[C@H](CCC(N)=O)NC(=O)CNC(=O)[C@@H]1C[C@@H](O)CN1 [YDE-105] (H-[Hyp]GQLGLAGP-NMeEt) | – | – | tested concentrations with significant attenuation of IL-6 cytokine release ([1]; listed as YDE105): 30 μM, 10 μM, and 1 μM; Poly I:C induced IL-6 cytokine release (in words) ([1]; listed as YDE105): attenuate Poly I:C induced IL-6 cytokine release in a dose dependent manner |
| – | 10000 (≈ 11.2 mM) | CCN(C(=O)[C@@H]1CCCN1C(=O)CNC(=O)[C@H](C)NC(=O)[C@H](CC(C)C)NC(=O)CNC(=O)[C@H](CC(C)C)NC(=O)[C@H](CCC(N)=O)NC(=O)CNC(=O)[C@@H]1C[C@@H](O)CN1)C(C)C [YDE-107] (H-[Hyp]GQLGLAGP-X1) | attenuation of IL-6 release | 30 μM, 10 μM, and 1 μM | Poly I:C induced IL-6 cytokine release (in words) ([1]; listed as YDE107): attenuate Poly I:C induced IL-6 cytokine release in a dose dependent manner |
